US10947203B2, “1,4,5-substituted 1,2,3-triazole analogues as antagonists of the pregnane X receptor” (ST. JUDE CHILDREN'S RESEARCH HOSPITAL, priority 2016, dated 2021)

What was measured:
[1] = test system: hPXR-mediated CYP3A4 promoter reporter activity; assay: CYP3A4 promoter reporter activity in hPXR-CYP3A4-luc reporter mice (bioluminescence imaging); type: in vivo, mouse; conditions: RIF 10 mg/kg plus test compound 150 mg/kg every 24 h for 2 days; imaging 10 h after last treatment; FIG. 4
Procedure: Individual mouse received 3 rounds of sequential treatment of vehicle control (Vehicle), RIF (10 mg/kg) and RIF (10 mg/kg) plus the test compound (150 mg/kg) every 24 h for 2 days, respectively, with a washout period of 72-hour between two rounds of treatment. The luciferase activity in these reporter mice was recorded by bioluminescence imaging 10 h after the last treatment of each round, and the induction of CYP3A4 promoter reporter activity was calculated as described in Examples. Each data point represents the induction of CYP3A4 promoter reporter activity by the treatment in an individual mouse, and dos lines indicate the CYP3A4 promoter reporter activity change in individual mouse after following round of treatment. p values are indicated between the two treatment compared by paired t test.
10 hours after the last treatment of each round, the mice were imaged as described above. Uniform regions of interest were drawn around the liver, and total photon flux was analyzed with Living Image 3.2 software (Xenogen). The induction of CYP3A4-luc reporter activity was calculated using the imaging from the same mouse as follows: induction rate=total photon flux (after treatment)/total photon flux (before treatment).

[2] = test system: primary human hepatocytes (PHHs); assay: paclitaxel metabolism in primary human hepatocytes; type: cell-based; conditions: 1 μM PTX with 10 μM test compound; 24 and 48 hr; FIGS. 1B, 1C
Procedure: (§1) The concentrations of 1′-OH MDZ (MDZ metabolite) in the media of each pretreatment condition were determined using LC/MS/MS as described in the Examples. […] PHHs were also treated with 1 μM of PTX in the absence and presence of 10 μM of the test compound, and then the concentrations of major PTX metabolites, 3-OH PTX (by CYP3A4) and 6α-OH PTX (by CYP2C8), were determined using LC/MS/MS at 24 hr and 48 hr of treatment, respectively.
(§2) Midazolam and 1-OH midazolam were from BD Gentest. Midazolam-D4 maleate (internal standard, IS) was from Cerilliant; Paclitaxel and 3′-p-hydroxypaclitaxel were from Sigma; and 6u-hydroxy Paclitaxel was from Cayman Chemical. 100 μl of reaction medium at each different time point was collected and 200 μl of acetonitrile containing IS was added. This solution was then vigorously mixed for 10 min and centrifuged at 10,000 rpm for 10 min. Calibration and quality control samples were prepared. 5 μl of the samples was injected onto a Waters Acquity UPLC BEH C18 column (2.1x 50 mm, 1.7 μm), using a Waters Acquity UPLC system. Chromatographic separation was performed by gradient elution at a constant flow rate of 1 mL/min for 15 min. The gradient consisted of 0.1% formic acid water (mobile phase A) and methanol (mobile phase B). […] Nitrogen was applied as curtain, collision and drying gas at 60 psi. […]

[3] = test system: RIF-induced metabolism of the anesthetic (CYP3A11); assay: loss of righting reflex (LORR) assay in hPXR-tg mice; type: in vivo, mouse; conditions: RIF 10 mg/kg plus test compound 200 mg/kg every 24 h for three days, FIG. 5
Procedure: Loss of righting reflex (LORR) duration was recorded as described in Examples to measure metabolism of the anesthetic ([…]) in hPXR-tg, mice before and after treatment with vehicle, RIF, and RIF plus the test compound as indicated. Each data point represents LORR duration in an individual mouse; lines indicate LORR duration change in individual mouse before and after treatment. P values indicate comparison of values by paired t test.
Mice were intraperitoneally injected with 250 mg/kg of 2,2,2-tribromoethanol, which is metabolically cleared only via mouse CYP3A11. After the mice lost their righting reflex, they were placed on their backs under a heat lamp. The duration of LORR was measured as the time from the start of LORR to recovery (i.e., when mice could right themselves after being placed on their backs twice within 1 min). A baseline LORR duration was established for each mouse at the administered dose of 2,2,2-tribromoethanol. […] The paired Student's t-test was used to compare LORR duration between baseline and after treatment. A P value <0.05 was considered to indicate a significant difference between compared groups.

[4] = test system: primary human hepatocytes (PHHs); assay: midazolam metabolism in primary human hepatocytes pretreated with hPXR agonist; type: cell-based; conditions: 10 μM test compound; 72 hr pretreatment with DMSO, 1.6 μM RIF, 0.5 or 5 μM PTX; then 3.3 μM MDZ 4 h; FIG. 1A
Procedure: as §1, §2

[5] = test system: hPXR-mediated increase in CYP3A expression; assay: liver Cyp3a11 mRNA and CYP3A protein in hPXR-tg mice; type: in vivo, mouse; conditions: RIF 10 mg/kg plus test compound 200 mg/kg, 72 h, FIGS. 3A-3C
Procedure: Briefly, mouse liver Cyp3a11 mRNA was analyzed by real-time PCR in hPXR-tg mice treated with vehicle control (Vehicle), RIF (10 mg/kg) or RIF (10 mg/kg) plus test compound (200 mg/kg) for 72 h. Each data point represents the level of Cyp3a11 mRNA (FIG. 3A) or protein (FIG. 3B) in an individual mouse; lines indicate the mean value for 3-7 mice per group.
hPXR-tg mice were generated previously (Xie et al., 2000). Five mice in each group were dosed orally with vehicle control or 10 mg/kg RIF, every 24 h for three days. Eight hours after the last dose, the animals were euthanized by C02 and liver tissues were harvested. A piece of each liver was preserved in RNAlater solution (Invitrogen) at 4° C. for mRNA isolation. The remaining tissue was instantly frozen in liquid nitrogen and stored at −80° C. for total protein extraction. […]

## COc1ccc(OC)c(-n2nnc(S(=O)(=O)c3ccc(C(C)(C)C)cc3)c2C)c1 [4-((4-(tert-butyl)phenyl)sulfonyl)-1-(2,5-dimethoxyphenyl)-5-methyl-1H-1,2,3-triazole]
[1]
  RIF-induced expression of the reporter under the control of the CYP3A4 promoter: significantly reduced
[2]
  metabolism of PTX to 3-OH PTX and 6α-OH PTX: effectively blocked
[3]
  RIF-induced metabolism of the anesthetic, as determined by LORR duration: significantly inhibited
[4]
  metabolism of MDZ (1′-OH MDZ concentration in media): essentially blocked
[5]
  hPXR-mediated increase in CYP3A expression (liver Cyp3a11 mRNA, CYP3A protein): inhibits the hPXR-mediated increase in CYP3A expression
